From the NIST ThermoML archive (doi:10.1021/je049762q)
Numbers after ± are expanded uncertainties.

Assay: molar heat capacity at constant pressure
Conditions: 101.33 kPa

Brc1ccc(Br)cc1 [1,4-dibromobenzene]
molar heat capacity at constant pressure [J/K/mol]
Conditions	Crystal	Liquid
5.27 K	1.01 ± 0.04	–
5.8 K	1.18 ± 0.04	–
6.45 K	1.36 ± 0.05	–
6.5 K	1.38 ± 0.05	–
7.46 K	2.31 ± 0.06	–
7.64 K	2.66 ± 0.07	–
7.71 K	2.81 ± 0.07	–
8.52 K	3.67 ± 0.08	–
8.77 K	3.87 ± 0.08	–
9.03 K	4.08 ± 0.09	–
9.52 K	4.41 ± 0.09	–
10 K	5.01 ± 0.1	–
10.07 K	5.11 ± 0.1	–
10.26 K	5.43 ± 0.11	–
10.6 K	5.83 ± 0.11	–
11.8 K	6.63 ± 0.12	–
12.15 K	7.18 ± 0.13	–
12.41 K	7.69 ± 0.13	–
12.47 K	7.8 ± 0.14	–
13.6 K	9.64 ± 0.16	–
14.05 K	10.68 ± 0.17	–
14.2 K	10.78 ± 0.17	–
15 K	12.33 ± 0.19	–
15.55 K	13.29 ± 0.2	–
15.57 K	13.3 ± 0.2	–
15.9 K	13.84 ± 0.2	–
16.68 K	14.94 ± 0.21	–
17.46 K	16.03 ± 0.22	–
17.68 K	16.47 ± 0.22	–
17.94 K	16.83 ± 0.23	–
18.59 K	17.79 ± 0.23	–
19.73 K	19.51 ± 0.24	–
20 K	19.9 ± 0.24	–
20.25 K	20.25 ± 0.25	–
22.16 K	22.72 ± 0.25	–
22.64 K	23.37 ± 0.26	–
23.84 K	25.08 ± 0.26	–
24.7 K	25.82 ± 0.26	–
25 K	26.17 ± 0.26	–
26.55 K	28 ± 0.25	–
27.15 K	28.54 ± 0.25	–
28.82 K	30.45 ± 0.24	–
29.32 K	30.8 ± 0.24	–
30 K	31.55 ± 0.21	–
31.01 K	32.68 ± 0.21	–
31.27 K	32.7 ± 0.21	–
33.06 K	34.41 ± 0.22	–
33.29 K	34.82 ± 0.22	–
35.63 K	36.98 ± 0.23	–
38.01 K	38.95 ± 0.24	–
40 K	40.38 ± 0.24	–
40.43 K	40.7 ± 0.24	–
42.9 K	42.52 ± 0.25	–
45.4 K	44.29 ± 0.26	–
47.94 K	45.99 ± 0.26	–
50 K	47.3 ± 0.27	–
50.51 K	47.61 ± 0.27	–
53.12 K	49.13 ± 0.28	–
55.75 K	50.72 ± 0.28	–
58.41 K	52.22 ± 0.29	–
60 K	53.1 ± 0.29	–
61.09 K	53.7 ± 0.3	–
63.8 K	55.15 ± 0.3	–
66.54 K	56.56 ± 0.31	–
69.3 K	57.98 ± 0.31	–
70 K	58.33 ± 0.31	–
72.07 K	59.33 ± 0.32	–
74.86 K	60.72 ± 0.32	–
77.68 K	62.03 ± 0.33	–
80 K	63.11 ± 0.33	–
80.51 K	63.35 ± 0.33	–
83.36 K	64.67 ± 0.34	–
86.22 K	65.91 ± 0.34	–
89.08 K	67.21 ± 0.35	–
89.28 K	67.47 ± 0.35	–
90 K	67.83 ± 0.54	–
91.9 K	68.39 ± 0.54	–
92.15 K	68.67 ± 0.54	–
94.65 K	69.5 ± 0.54	–
95.04 K	69.84 ± 0.54	–
97.35 K	70.59 ± 0.54	–
97.94 K	71.11 ± 0.54	–
100 K	71.7 ± 0.54	–
100.85 K	72.3 ± 0.54	–
102.59 K	72.97 ± 0.55	–
103.77 K	73.61 ± 0.55	–
105.15 K	73.98 ± 0.55	–
106.7 K	74.69 ± 0.55	–
109.64 K	75.86 ± 0.55	–
110 K	76 ± 0.55	–
112.58 K	77.06 ± 0.55	–
115.54 K	78.22 ± 0.56	–
118.5 K	79.39 ± 0.56	–
120 K	79.98 ± 0.56	–
121.46 K	80.54 ± 0.56	–
124.44 K	81.71 ± 0.56	–
127.42 K	82.85 ± 0.57	–
130 K	83.85 ± 0.57	–
130.4 K	84.01 ± 0.57	–
133.39 K	85.14 ± 0.57	–
136.39 K	86.25 ± 0.57	–
139.39 K	87.37 ± 0.57	–
140 K	87.59 ± 0.58	–
142.39 K	88.47 ± 0.58	–
145.4 K	89.57 ± 0.58	–
148.41 K	90.66 ± 0.58	–
150 K	91.25 ± 0.58	–
151.43 K	91.77 ± 0.58	–
154.45 K	92.84 ± 0.59	–
157.47 K	93.92 ± 0.59	–
160 K	94.86 ± 0.59	–
160.49 K	95.04 ± 0.59	–
163.52 K	96.13 ± 0.59	–
166.54 K	97.21 ± 0.59	–
169.55 K	98.29 ± 0.6	–
170 K	98.46 ± 0.6	–
172.58 K	99.4 ± 0.6	–
175.6 K	100.5 ± 0.6	–
178.62 K	101.59 ± 0.6	–
180 K	102.09 ± 0.6	–
181.65 K	102.69 ± 0.61	–
184.69 K	103.79 ± 0.61	–
187.72 K	104.9 ± 0.61	–
190 K	105.74 ± 0.61	–
190.75 K	106.01 ± 0.61	–
193.79 K	107.09 ± 0.61	–
196.83 K	108.2 ± 0.62	–
199.86 K	109.24 ± 0.62	–
200 K	109.29 ± 0.62	–
202.9 K	110.27 ± 0.62	–
205.94 K	111.41 ± 0.62	–
208.97 K	112.54 ± 0.63	–
210 K	112.91 ± 0.63	–
212.01 K	113.63 ± 0.63	–
215.05 K	114.77 ± 0.63	–
218.09 K	115.88 ± 0.63	–
220 K	116.57 ± 0.63	–
221.12 K	116.98 ± 0.63	–
224.16 K	118.12 ± 0.64	–
227.19 K	119.19 ± 0.64	–
230 K	120.22 ± 0.64	–
230.23 K	120.31 ± 0.64	–
233.27 K	121.42 ± 0.64	–
236.31 K	122.55 ± 0.65	–
239.34 K	123.69 ± 0.65	–
240 K	123.94 ± 0.65	–
242.38 K	124.8 ± 0.65	–
245.41 K	125.94 ± 0.65	–
248.44 K	127.13 ± 0.65	–
250 K	127.69 ± 0.66	–
251.48 K	128.22 ± 0.66	–
254.52 K	129.34 ± 0.66	–
257.56 K	130.47 ± 0.66	–
260 K	131.36 ± 0.66	–
260.6 K	131.58 ± 0.66	–
263.64 K	132.68 ± 0.67	–
266.67 K	133.83 ± 0.67	–
269.71 K	134.94 ± 0.67	–
270 K	135.04 ± 0.67	–
272.74 K	136.06 ± 0.67	–
275.78 K	137.2 ± 0.67	–
278.81 K	138.23 ± 0.68	–
280 K	138.63 ± 0.68	–
281.84 K	139.24 ± 0.68	–
284.87 K	140.31 ± 0.68	–
287.9 K	141.45 ± 0.68	–
290 K	142.24 ± 0.68	–
290.93 K	143.08 ± 0.69	–
292.89 K	143.33 ± 0.69	–
293.96 K	143.64 ± 0.69	–
295.8 K	144.5 ± 0.69	–
296.99 K	144.79 ± 0.69	–
298.15 K	145.34 ± 0.69	–
298.79 K	145.71 ± 0.69	–
300 K	145.97 ± 0.69	–
300.02 K	145.98 ± 0.69	–
301.84 K	146.94 ± 0.69	–
303.03 K	147.07 ± 0.69	–
304.88 K	148.06 ± 0.7	–
306.05 K	148.21 ± 0.7	–
307.92 K	149.18 ± 0.7	–
309.07 K	149.34 ± 0.7	–
310 K	149.79 ± 0.7	–
310.96 K	150.23 ± 0.7	–
312.09 K	150.47 ± 0.7	–
314 K	151.06 ± 0.7	–
317.04 K	152.02 ± 0.7	–
320 K	153.12 ± 0.71	–
320.07 K	153.14 ± 0.71	–
323.1 K	154.4 ± 0.71	–
326.13 K	155.58 ± 0.71	–
329.16 K	156.76 ± 0.71	–
330 K	157.09 ± 0.71	–
332.19 K	157.97 ± 0.72	–
335.22 K	159.26 ± 0.72	–
338.24 K	160.5 ± 0.72	–
340 K	161.27 ± 0.72	–
341.26 K	161.81 ± 0.72	–
344.28 K	163.16 ± 0.73	–
347.3 K	164.65 ± 0.73	–
350 K	166.05 ± 0.73	–
350.32 K	166.28 ± 0.73	–
360 K	171.43 ± 0.74	–
360.48 K	171.7 ± 0.74	190.38 ± 0.78
362.85 K	–	190.92 ± 0.78
363.89 K	–	191.22 ± 0.78
365.71 K	–	191.62 ± 0.78
366.91 K	–	191.91 ± 0.78
368.72 K	–	192.27 ± 0.78
369.93 K	–	192.55 ± 0.79
370 K	–	192.57 ± 0.78
371.72 K	–	192.9 ± 0.79
372.94 K	–	193.22 ± 0.79
374.79 K	–	193.57 ± 0.79
377.7 K	–	194.15 ± 0.79
380 K	–	194.61 ± 0.79
380.68 K	–	194.75 ± 0.79
